Experimental data taken from patent US12115152B2, “Pan-RAF kinase inhibitor and use thereof” (HEFEI INSTITUTES OF PHYSICAL SCIENCE, CHINESE ACADEMY OF …, priority 2019, dated 2024).
Values joined by “and” are separate entries in the source; they are usually repeats but may differ in a detail not shown here. Equal values may be shown once. Read-outs that look alike come from different tables or passages of the source.

Assay: Pharmacokinetic parameters in rats
Format: in vivo, SD rats
Settings: rat
Experimental: In the example, SD rats (180-220 g, male) (purchased from Experimental Animal Center of Anhui Medical University, China) were used. The animals were kept in cages ventilated independently with 6 rats per cage. The feeding was performed at a temperature of 20˜26° C. and a humidity of 35-75%. The light condition was 12 hours of lighting/12 hours of darkness. The corncob bedding was refreshed once a week. The rats were fed with foods and drinking water on an ad libitum basis. The rats were marked with a number on the tails. During the experiment, the breeding and use of animals strictly follow the regulations of Association for Assessment and Accreditation of Laboratory Animal Care International.
Solutions of Compound 16 and Comparative Compound 1 were prepared as follows. 10 mg of the compound to be tested was precisely weighed into a sterile vial, and was dissolved with a small amount of DMSO, and then was made to a constant volume of 5 ml with 5% glucose solution, to give a gavage test solution at a concentration of 2 mg/mL. 0.5 ml of the above gavage test solution at a concentration of 2 mg/mL was precisely taken, and was made to constant volume of 5 ml with 4.5 ml of 5% glucose solution, to give an intravenous injection test solution at a concentration of 0.2 mg/mL. The solution was prepared immediately before being used in the experiment.
6 SD rats were randomly divided into two groups, and the synthesized compounds were administered by gavage and tail vein injection, respectively. About 0.3 mL of blood samples were collected from the retro-orbital venous plexus at 0 h before administration and at 5 min, 15 min, 30 min, 1 h, 1.5 h, 2 h, 4 h, 6 h, 9 h, 12 h, 24 h after administration for the gavage group; and at 0 h before administration and at 2 min, 5 min, 15 min, 30 min, 1 h, 2 h, 4 h, 6 h, 9 h, and 12 h after administration for the tail vein group. Each of the collected blood samples was put in a 1.5 mL centrifuge tube with heparin (Sigma, USA). The sample was centrifuged at 6000 rpm for 3 min to separate the plasma. 100 μL of plasma in the upper layer was placed into a new 1.5 mL centrifuge tube, and stored at −80° C. for determination. 10 mg of a standard for the compound to be tested was precisely weighed into a 10 mL volumetric flask, and was dissolved by adding methanol to make a constant volume and mixed uniformly, to give a 1 mg/mL stock solution. The stock solution was then diluted gradually with methanol to give a series of working solutions at concentrations of 0.01, 0.02, 0.05, 0.1, 0.2, 0.5, 1, 2, 5, 10, 20 μg/mL. The working solutions were placed in a refrigerator at 4° C. for later use. 11 centrifuge tubes were used. 10 μL of the above working solutions was respectively added to each of the centrifuge tubes, and then 90 μL of blank rat plasma was respectively added therein. The mixtures were mixed uniformly, so that the concentration of the compound in the rat plasma was 1, 2, 5, 10, 20, 50, 100, 200, 500, 1000, 2000 ng/mL. Then, 20 μL of a solution of caffeine as the internal standard (200 ng/mL) (National Institutes for Food and Drug Control, China) was added therein, and the resultant mixtures were vortexed for 10 s. Next, 400 μL of methanol was added. The resultant mixtures were vortexed for 10 min, and centrifuged at 16000 rpm for 5 min. Thereafter, 70 μL of the supernatant was placed into the inserted pipe of a sampling bottle. 5 μL of the sample was introduced for a LC-MS/MS analysis. A standard curve of the compound in the rat plasma was obtained by means of a linear regression performed by taking the ratio of the peak area of the sample to that of the internal standard As/Ais as the vertical ordinate, taking the concentration C (μg/mL) as the horizontal ordinate, and taking 1/C^2 was taken as a weighting coefficient.
To 100 μL of the rat plasma to be tested stored at −80° C., 20 μL of a caffeine solution (200 ng/mL) as the internal standard was added. The resultant mixture was vortexed for 10 s. […]

[1] = male, Sprague-Dawley, plasma, iv, 1 mg/kg, intravenous injection 1 mg/kg, average n=3
[2] = male, Sprague-Dawley, plasma, iv, 1 mg/kg, intravenous injection 1 mg/kg, individual rats #1-#3
[3] = intravenous injection 1 mg/kg, average n=3
[4] = intravenous injection 1 mg/kg, individual rats #1-#3, listed as Comparative Compound 1, 1 mg/kg
[5] = oral administration (gavage) 10 mg/kg, average n=3
[6] = oral administration (gavage) 10 mg/kg, individual rats #1-#3, listed as Comparative Compound 1, 10 mg/kg

For `Cc1ccc(NC(=O)c2cccc(C(F)(F)F)c2)cc1-n1cc(-c2cccnc2)cn1` [compound 1, 3-trifluoromethyl-N-(4-methyl-3-(4-(pyrid-3-yl)-1H-pyrazol-1-yl)phenyl)benzamide, reference compound], the AUC(0-inf) (male, SD, plasma, po, 10 mg/kg, oral administration (gavage) 10 mg/kg, average n=3) was 1020 ng·h/mL, the Tmax (male, SD, plasma, po, 10 mg/kg, oral administration (gavage) 10 mg/kg, average n=3, read-out: Tmax) was 30 min and the half-life (male, SD, plasma, po, 10 mg/kg, oral administration (gavage) 10 mg/kg, average n=3, read-out: T½ (converted)) was 54.4 min. For the same compound, the Tmax (male, SD, plasma, po, 10 mg/kg, oral administration (gavage) 10 mg/kg, individual rats #1-#3, read-out: Tmax) was 30 min, the half-life (male, SD, plasma, po, 10 mg/kg, oral administration (gavage) 10 mg/kg, individual rats #1-#3, read-out: T½ (converted)) was 60.2 min and the AUC(0-inf) [1] was 92.5 ng·h/mL. For the same compound, the clearance [1] was 188 mL/min/kg, the AUC0-t (male, Sprague-Dawley, plasma, iv, 1 mg/kg, intravenous injection 1 mg/kg, average n=3, read-out: AUC0-t) was 91.6 ng·h/mL and the C0 (male, Sprague-Dawley, plasma, iv, 1 mg/kg, intravenous injection 1 mg/kg, average n=3, read-out: C0) was 348 ng/mL. For the same compound, the Cmax (male, Sprague-Dawley, plasma, iv, 1 mg/kg, intravenous injection 1 mg/kg, average n=3, read-out: Cmax) was 262 ng/mL, the MRT last (male, Sprague-Dawley, plasma, iv, 1 mg/kg, intravenous injection 1 mg/kg, average n=3, read-out: MRT0-t) was 34 min and the MRT inf (male, Sprague-Dawley, plasma, iv, 1 mg/kg, intravenous injection 1 mg/kg, average n=3, read-out: MRT0-∞) was 37 min. The Tmax (male, Sprague-Dawley, plasma, iv, 1 mg/kg, intravenous injection 1 mg/kg, average n=3, read-out: Tmax) was 1.98 min, the half-life (male, Sprague-Dawley, plasma, iv, 1 mg/kg, intravenous injection 1 mg/kg, average n=3, read-out: T½ (converted)) was 42.9 min and the Vd (male, Sprague-Dawley, plasma, iv, 1 mg/kg, intravenous injection 1 mg/kg, average n=3, read-out: Vz) was 12 L/kg. It also gave an AUC(0-inf) [2] of 84 ng·h/mL, a clearance [2] of 198 mL/min/kg and an AUC0-t (male, Sprague-Dawley, plasma, iv, 1 mg/kg, intravenous injection 1 mg/kg, individual rats #1-#3, read-out: AUC0-t) of 83.3 ng·h/mL. The C0 (male, Sprague-Dawley, plasma, iv, 1 mg/kg, intravenous injection 1 mg/kg, individual rats #1-#3, read-out: C0) was 260 ng/mL, the Cmax (male, Sprague-Dawley, plasma, iv, 1 mg/kg, intravenous injection 1 mg/kg, individual rats #1-#3, read-out: Cmax) was 200 ng/mL and the MRT last (male, Sprague-Dawley, plasma, iv, 1 mg/kg, intravenous injection 1 mg/kg, individual rats #1-#3, read-out: MRT0-t) was 36.3 min. The MRT inf (male, Sprague-Dawley, plasma, iv, 1 mg/kg, intravenous injection 1 mg/kg, individual rats #1-#3, read-out: MRT0-∞) was 38.5 min, the Tmax (male, Sprague-Dawley, plasma, iv, 1 mg/kg, intravenous injection 1 mg/kg, individual rats #1-#3, read-out: Tmax) was 1.98 min and the half-life (male, Sprague-Dawley, plasma, iv, 1 mg/kg, intravenous injection 1 mg/kg, individual rats #1-#3, read-out: T½ (converted)) was 38.8 min. The bioavailability (male, Sprague-Dawley, plasma, oral, 10 mg/kg, oral administration (gavage) 10 mg/kg vs intravenous 1 mg/kg, average n=3, read-out: F (oral bioavailability)) was 111%, the AUC0-t (male, Sprague-Dawley, plasma, po, 10 mg/kg, oral administration (gavage) 10 mg/kg, average n=3, read-out: AUC0-t) was 1010 ng·h/mL and the Cmax (male, Sprague-Dawley, plasma, po, 10 mg/kg, oral administration (gavage) 10 mg/kg, average n=3, read-out: Cmax) was 576 ng/mL. For the same compound, the MRT last (male, Sprague-Dawley, plasma, po, 10 mg/kg, oral administration (gavage) 10 mg/kg, average n=3, read-out: MRT0-t) was 93.7 min, the MRT inf (male, Sprague-Dawley, plasma, po, 10 mg/kg, oral administration (gavage) 10 mg/kg, average n=3, read-out: MRT0-∞) was 98.5 min and the MRT last (male, Sprague-Dawley, plasma, po, 10 mg/kg, oral administration (gavage) 10 mg/kg, individual rats #1-#3, read-out: MRT0-t) was 109 min. For the same compound, the MRT inf (male, Sprague-Dawley, plasma, po, 10 mg/kg, oral administration (gavage) 10 mg/kg, individual rats #1-#3, read-out: MRT0-∞) was 115 min, the AUMC0-t [3] was 53.50 hr*hr*ng/ml and the “AUMC0-∞” value [3] was 58.31 hr*hr*ng/ml. The AUC0-t [4] was 71.86 ng·h/mL and 119.59 ng·h/mL, the “AUC0-∞” value [4] was 73.08 ng·h/mL and 120.51 ng·h/mL and the AUMC0-t [4] was 50.39 hr*hr*ng/ml and 31.52 hr*hr*ng/ml and 78.58 hr*hr*ng/ml. For the same compound, the “AUMC0-∞” value [4] was 53.89 hr*hr*ng/ml and 37.99 hr*hr*ng/ml and 83.06 hr*hr*ng/ml, the C0 [4] was 402.4 ng/mL and 380.8 ng/mL and the Cl [4] was 228.07 mL/min/kg and 138.3 mL/min/kg. For the same compound, the Cmax [4] was 285.0 ng/mL and 300.0 ng/mL, the MRT0-t [4] was 26.3 min and 39.4 min and the “MRT0-∞” value [4] was 31.2 min and 41.3 min. The T½ [4] was 54.4 min and 35.5 min, the Vz [4] was 11.101 L/kg and 17.886 L/kg and 7.085 L/kg and the “F (oral bioavailability)” value (oral administration (gavage) 10 mg/kg vs intravenous 1 mg/kg, individual rats #1-#3, listed as Comparative Compound 1) was 31.2% and 133.6% and 167.2%. For the same compound, the AUMC0-t [5] was 1474 hr*hr*ng/ml, the “AUMC0-∞” value [5] was 1566 hr*hr*ng/ml and the Cl [5] was 273.12 mL/min/kg. For the same compound, the Vz [5] was 22.672 L/kg, the AUC0-t [6] was 285.6 ng·h/mL and 1217 ng·h/mL and 1532 ng·h/mL and the “AUC0-∞” value [6] was 289.0 ng·h/mL and 1236 ng·h/mL and 1547 ng·h/mL. For the same compound, the AUMC0-t [6] was 518.7 hr*hr*ng/ml and 1889 hr*hr*ng/ml and 2013 hr*hr*ng/ml, the “AUMC0-∞” value [6] was 554.4 hr*hr*ng/ml and 2023 hr*hr*ng/ml and 2121 hr*hr*ng/ml and the Cl [6] was 576.77 mL/min/kg and 134.8 mL/min/kg and 107.8 mL/min/kg. For the same compound, the Cmax [6] was 138 ng/mL and 579 ng/mL and 1010 ng/mL, the MRT0-t [6] was 93.12 min and 78.84 min and the “MRT0-∞” value [6] was 98.22 min and 82.26 min. For the same compound, the T½ [6] was 49.3 min and 53.6 min and the Vz [6] was 50.104 L/kg and 9.579 L/kg and 8.334 L/kg.
